# Patent US20020128317A1, “Treatment of pathological conditions characterized by an increased IL-1 level” (Laboratories NEGMA, priority 2001, published 2002)
# Tests used:
# IL-1 [1] = assay: IL-1 inhibition, several studies in vitro and with animal models of osteoarthritis
# From the text: (§1) This unique mechanism of action of diacerein was thought to explain, at least in part, its efficacy in the symptomatic treatment of osteoarthritis.
# [2] = tested on: prostaglandin biosynthesis; assay: Inhibition of prostaglandin biosynthesis; assay type: biochemical
# From the text: as §1
# phospholipase pathway = assay: Inhibitory effect on phospholipase pathway; assay type: biochemical
# From the text: as §1
# cyclooxygenase pathway = assay: Inhibitory effect on cyclooxygenase pathway; assay type: biochemical
# From the text: as §1
# lipooxygenase pathway = assay: Inhibitory effect on lipooxygenase pathway; assay type: biochemical
# From the text: as §1
# cartilage degradation = assay: Effect on cartilage degradation in osteoarthritis treatment; assay type: in vivo; details: prescribed treatment protocol
# IL-1 [3] = assay: Effect of administration on IL-1 levels in subjects; assay type: in vivo; details: subjects with abnormally elevated IL-1 and TNF-α levels
# TNF-α = assay: Effect of administration on TNF-α levels in subjects; assay type: in vivo; details: subjects with abnormally elevated IL-1 and TNF-α levels
# Solubility = assay type: physicochemical
# Experimental: (§2) Preferably the diacerein or rhein is administered orally in the conventional solid unit dosage form.
# [4] = Stability in aqueous solution; assay type: physicochemical
# Experimental: as §2
# [5] = Gastric safety during osteoarthritis treatment; assay type: in vivo
# From the text: as §1
substance,measurement,setting,value
diacerein,IL-1 inhibition,IL-1 [1],is an IL-1 inhibitor
same,inhibition of prostaglandin biosynthesis,[2],neither diacerein nor rhein inhibit
same,inhibitory effect on the phospholipase pathway,phospholipase pathway,no inhibitory effect was detected
same,inhibitory effect on the cyclooxygenase pathway,cyclooxygenase pathway,no inhibitory effect was detected
same,inhibitory effect on the lipooxygenase pathway,lipooxygenase pathway,no inhibitory effect was detected
same,effect on cartilage degradation,cartilage degradation,significant effect on cartilage degradation
same,effect on IL-1 levels,IL-1 [3],inhibitory effect
same,effect on TNF-α levels,TNF-α,inhibitory effect
same,solubility in alcohol,Solubility; alcohol,virtually insoluble
same,solubility in water,Solubility; water,virtually insoluble
same,stability in water,[4],may not be sufficiently stable
same,gastric safety profile,[5],excellent gastric safety profile
